Entries after “also recorded” stand apart in the source; their conditions may differ.
Experiments:
[1] = tested on: TNF-α; assay: TNF-α secretion in LPS-stimulated RAW264.7 macrophages (ELISA); assay type: cell-based, murine; conditions: Mus musculus, LPS (0.5 μg/mL)-stimulated RAW264.7 cells, 24 h, read-out: IC50 for TNF-α inhibition
Protocol: To elucidate the anti-inflammatory mechanisms underlying 3g and 3k, we conducted a comprehensive investigation into their impact on the secretion of pro-inflammatory cytokines, employing an LPS-stimulated RAW264.7 macrophage model. TNF-α and IL-6, which serve as pivotal mediators in the pathogenesis of ALI, are primarily secreted by activated alveolar macrophages, neutrophils, and lung structural cells. […] In this study, RAW264.7 cells were treated with LPS (0.5 μg mL^−1) and varying concentrations of 3g or 3k for 24 hours. […] This mechanistic understanding provides robust support for the therapeutic potential of the novel diaryl ketone scaffold in the ALI management.
Fig. 2 Compounds 3g and 3k inhibited the cytokine production of RAW264.7 cells stimulated by LPS. […] The levels of IL-6 (A) and TNF-α (B) in the culture medium were measured by ELISA kits. Data are expressed as mean ± SEM for each group of independent experiments (n = 3); *p < 0.05; **p < 0.01; ***p < 0.001 vs. model group.
Based on the initial screening results, compounds 3g and 3k were selected for further experimentation. […] The levels of TNF-α and IL-6 released into the macrophage supernatant were quantified using ELISA kits sourced from Elabscience (Wuhan, China), according to the manufacturer's guidelines.

[2] = tested on: SWCNT-induced ALI mice; assay: Lung histopathology (H&E) in SWCNT-induced ALI mice; assay type: in vivo, C57BL/6 mice; conditions: 50 mg/kg once a day for 3 d
Protocol: To evaluate the histopathological impact of 3g and 3k on SWCNT-induced ALI, hematoxylin and eosin (H&E) staining was performed on murine lung tissues.
(§1) Based on the results of the previous in vitro experiments, 3g and 3k were chosen for animal experiments. 3g was dissolved in 5% DMSO and 3k was dissolved in 0.5% sodium carboxymethyl cellulose (CMC-Na). Male C57BL/6 mice were randomly divided into four groups of ten animals each: CON, single-walled carbon nanotubes (SWCNT) model, 3k (50 mg kg^−1) + SWCNT, 3g (50 mg kg^−1) + SWCNT. The SWCNT model group was administered a one-time tracheal drip of 50 μL of SWCNT suspension containing 40 μg of SWCNT (approximately 1.86 mg per kg body weight) per mouse to model ALI. A blank tracheal drip of PBS was administered to the negative control. 3k + SWCNT and 3g + SWCNT groups were administered 3k or 3g of 50 mg per kg body weight once a day for 3d. The animals in the CON group received the same volume of 0.5% CMC-Na. The 1st dose was administered 1 h before modeling to avoid excessive damage to mice. The control and model groups were injected intraperitoneally with a blank solvent. […]
(§2) Mouse lung tissues were isolated and stored in a 4% paraformaldehyde solution. […] Representative images of each sample were acquired (magnification ×200) and analyzed using the ImageJ software. […]

[3] = tested on: TNF-α; assay: TNF-α in BALF of ALI mice (ELISA); assay type: in vivo, C57BL/6 mice; conditions: SWCNT-induced ALI mice, 50 mg per kg dose
Protocol: To confirm the in vivo inhibitory effects of 3g and 3k, we examined the levels of pro-inflammatory cytokines in bronchoalveolar lavage fluid (BALF) from ALI mice.
as §1
The collected bronchoalveolar lavage fluid (BALF) was centrifuged to obtain the supernatant. The concentrations of TNF-α and IL-6 in BALF were determined using ELISA. […]

[4] = tested on: NF-κB p65; assay: Immunofluorescence of NF-κB p65 in lung tissues; assay type: in vivo, C57BL/6 mice; conditions: SWCNT-induced ALI mice, 50 mg/kg once a day for 3 d
Description: To elucidate the mechanism underlying the modulation of NF-κB pathway, we employed immunofluorescence techniques to scrutinize the spatiotemporal dynamics of NF-κB p65 within lung tissues. The canonical NF-κB signaling cascade involves IκB kinase (IKK)-mediated phosphorylation of IκBα, triggering its ubiquitination and proteasomal degradation. This process releases the NF-κB p65/p50 heterodimer, enabling its nuclear translocation and subsequent initiation of pro-inflammatory mediator transcription.[35,36] […] This finding implies a pharmacological activity that is contingent upon the structural characteristics of the compounds.
(§3) Based on the results of the previous in vitro experiments, 3g and 3k were chosen for animal experiments. 3g was dissolved in 5% DMSO and 3k was dissolved in 0.5% sodium carboxymethyl cellulose (CMC-Na). Male C57BL/6 mice were randomly divided into four groups of ten animals each: CON, single-walled carbon nanotubes (SWCNT) model, 3k (50 mg kg^−1) + SWCNT, 3g (50 mg kg^−1) + SWCNT. The SWCNT model group was administered a one-time tracheal drip of 50 μL of SWCNT suspension containing 40 μg of SWCNT (approximately 1.86 mg per kg body weight) per mouse to model ALI. […]
as §2

[5] = tested on: phosphorylated IκB and p65; assay: Western blot of NF-κB pathway in lung tissues; assay type: in vivo, C57BL/6 mice; conditions: SWCNT-induced ALI mice, 50 mg/kg once a day for 3 d
Description: The expression levels of phosphorylated IκB and p65 were meticulously examined. To further delve into and evaluate the impact of compounds 3g and 3k on the NF-κB signaling pathway within SWCNT-induced ALI murine models, western blotting analysis was used to comprehensively assess the activation status of the NF-κB pathway in lung tissues.
Collectively, novel pyrrolo[2,1-a]isoquinoline aryl ketones represent promising anti-inflammatory candidates for SWCNT-induced pulmonary injury, functioning through NF-κB pathway regulation.
as §3
Lung tissue samples were collected from each mouse. […] The protein concentration was accurately determined using the BCA method. […] ECL chemiluminescent reagent was used to visualize the protein bands, and the gray values of the bands were analyzed using ImageJ software.

Row | Structure (SMILES) | IC50 [1] [µM] | Histopathological lung changes (H&E) [2] | TNF-α level in BALF [3] | p65 fluorescence intensity and nuclear translocation in lung tissue [4] | Phosphorylated IκB and p65 levels in lung tissue [5] | Histopathological lung changes (H&E) ([2]; 50 mg/kg) | p65 fluorescence intensity and nuclear translocation in lung tissue ([4]; 50 mg/kg)
1 | Cc1ccccc1C(=O)c1ccc2c3ccccc3ccn12 [3k] | 8.3 | significantly ameliorated these histopathological features | effectively suppressed the release of TNF-α | reduced fluorescence intensity and suppressed nuclear translocation of p65 | substantially suppressed these phosphorylation events |  | 
2 | O=C(c1ccc(F)cc1)c1ccc2c3ccccc3ccn12 [3g] | 7.85 |  | effectively suppressed the release of TNF-α |  | substantially suppressed these phosphorylation events | significantly ameliorated these histopathological features; also recorded: superior efficacy in mitigating structural damage and neutrophil infiltration compared to 3k | reduced fluorescence intensity and suppressed nuclear translocation of p65; also recorded: significantly enhanced efficacy in inhibiting he nuclear translocation of p65

Source: paper PMC12590356, “Novel pyrrolo[2,1-a]isoquinoline aryl ketones attenuate carbon nanotube-induced acute lung injury through NF-κB pathway inhibition” (RSC Advances, 2025)
